From patent US10214542B2, “Modified macrocyclic compounds” (BAYER PHARMA AKTIENGESELLSCHAFT, priority 2015, dated 2019)

What was measured:
[1] = target: T1, CDK2/CycE (Homo sapiens, UniProt P24941); assay: CDK2/CycE kinase assay (TR-FRET, Method 2a); format: biochemical; conditions: 10 μM ATP
T1 construct: GST; purchased ProQinase GmbH (Freiburg, Germany); host or cells: insect cells (Sf9)
Source text: 2a. CDK2/CycE Kinase Assay:
CDK2/CycE-inhibitory activity of compounds of the present invention was quantified employing the CDK2/CycE TR-FRET assay as described in the following paragraphs:
Recombinant fusion proteins of GST and human CDK2 and of GST and human CycE, expressed in insect cells (Sf9) and purified by Glutathion-Sepharose affinity chromatography, were purchased from ProQinase GmbH (Freiburg, Germany). As substrate for the kinase reaction biotinylated peptide biotin-Ttds-YISPLKSPYKISEG (C-terminus in amid form) was used which can be purchased e.g. from the company JERINI Peptide Technologies (Berlin, Germany).
(§1) For the assay 50 nl of a 100 fold concentrated solution of the test compound in DMSO was pipetted into a black low volume 384 well microtiter plate (Greiner Bio-One, Frickenhausen, Germany), 2 μl of a solution of CDK2/CycE in aqueous assay buffer [50 mM Tris/HCl pH 8.0, 10 mM MgCl2, 1.0 mM dithiothreitol, 0.1 mM sodium ortho-vanadate, 0.01% (v/v) Nonidet-P40 (Sigma)] were added and the mixture was incubated for 15 min at 22° C. to allow pre-binding of the test compounds to the enzyme before the start of the kinase reaction. […] The concentration of CDK2/CycE was adjusted depending of the activity of the enzyme lot and was chosen appropriate to have the assay in the linear range, typical concentrations were in the range of 130 ng/mL. The reaction was stopped by the addition of 5 μl of a solution of TR-FRET detection reagents (0.2 μM streptavidine-XL665 [Cisbio Bioassays, Codolet, France] and 1 nM anti-RB(pSer807/pSer811)-antibody from BD Pharmingen [#558389] and 1.2 nM LANCE EU-W1024 labeled anti-mouse IgG antibody [Perkin-Elmer, product no. AD0077]) in an aqueous EDTA-solution (100 mM EDTA, 0.2% (w/v) bovine serum albumin in 100 mM HEPES pH 7.5).
(§2) The resulting mixture was incubated 1 h at 22° C. to allow the formation of complex between the phosphorylated biotinylated peptide and the detection reagents. Subsequently the amount of phosphorylated substrate was evaluated by measurement of the resonance energy transfer from the Eu-chelate to the streptavidine-XL. Therefore, the fluorescence emissions at 620 nm and 665 nm after excitation at 350 nm was measured in a TR-FRET reader, e.g. a Rubystar (BMG Labtechnologies, Offenburg, Germany) or a Viewlux (Perkin-Elmer). The ratio of the emissions at 665 nm and at […] was taken as the measure for the amount of phosphorylated substrate. The data were normalised (enzyme reaction without inhibitor=0% inhibition, all other assay components but no enzym=100% inhibition).

[2] = target: T2, CDK9/CycT1 (Homo sapiens, UniProt P50750); assay: CDK9/CycT1 kinase assay (TR-FRET, Method 1a); format: biochemical; conditions: 10 μM ATP; for IC50: Method 1a; for Selectivity CDK9 over CDK2: IC50 (CDK2)/IC50 (CDK9): Methods 1a and 2a
T2 construct: Recombinant full-length His-tagged human CDK9 and CycT1; His; purchased Invitrogen PV4131; host or cells: insect cells
T2 sequence (P50750 whole entry): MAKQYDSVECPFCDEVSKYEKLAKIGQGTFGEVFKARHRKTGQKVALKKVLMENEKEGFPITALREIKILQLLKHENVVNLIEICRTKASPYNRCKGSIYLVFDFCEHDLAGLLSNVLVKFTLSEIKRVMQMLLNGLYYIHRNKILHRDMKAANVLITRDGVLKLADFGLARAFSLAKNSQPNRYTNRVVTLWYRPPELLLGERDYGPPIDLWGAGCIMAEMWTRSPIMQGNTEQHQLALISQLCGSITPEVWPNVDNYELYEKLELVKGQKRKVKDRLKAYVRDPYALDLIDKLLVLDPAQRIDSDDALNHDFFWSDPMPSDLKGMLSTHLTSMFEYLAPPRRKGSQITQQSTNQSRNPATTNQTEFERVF
T2 sequence (O60563 whole entry partner): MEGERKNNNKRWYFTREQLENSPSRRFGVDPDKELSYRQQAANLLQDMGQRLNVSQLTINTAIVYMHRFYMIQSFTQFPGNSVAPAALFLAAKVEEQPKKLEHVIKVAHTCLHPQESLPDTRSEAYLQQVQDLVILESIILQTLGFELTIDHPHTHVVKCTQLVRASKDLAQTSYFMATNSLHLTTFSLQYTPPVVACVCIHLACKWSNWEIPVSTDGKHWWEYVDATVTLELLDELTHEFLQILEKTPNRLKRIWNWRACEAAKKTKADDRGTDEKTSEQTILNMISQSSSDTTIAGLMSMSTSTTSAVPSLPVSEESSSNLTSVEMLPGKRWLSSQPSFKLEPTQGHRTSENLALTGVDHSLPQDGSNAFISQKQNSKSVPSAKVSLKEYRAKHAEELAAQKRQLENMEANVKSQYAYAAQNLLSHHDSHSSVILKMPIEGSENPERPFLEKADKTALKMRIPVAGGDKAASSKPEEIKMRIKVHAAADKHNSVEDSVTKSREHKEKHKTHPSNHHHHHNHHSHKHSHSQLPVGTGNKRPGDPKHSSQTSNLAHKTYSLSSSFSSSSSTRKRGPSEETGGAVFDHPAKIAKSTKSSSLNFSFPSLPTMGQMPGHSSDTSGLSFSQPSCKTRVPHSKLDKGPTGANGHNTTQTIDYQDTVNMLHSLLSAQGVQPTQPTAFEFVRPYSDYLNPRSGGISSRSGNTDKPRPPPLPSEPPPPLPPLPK
Source text: 1a. CDK9/CycT1 Kinase Assay:
CDK9/CycT1-inhibitory activity of compounds of the present invention was quantified employing the CDK9/CycT1 TR-FRET assay as described in the following paragraphs:
Recombinant full-length His-tagged human CDK9 and CycT1, expressed in insect cells and purified by Ni-NTA affinity chromatography, were purchased from Invitrogen (Cat. No PV4131). As substrate for the kinase reaction biotinylated peptide biotin-Ttds-YISPLKSPYKISEG (C-terminus in amid form) was used which can be purchased e.g. from the company JERINI Peptide Technologies (Berlin, Germany).
as §1, with “CDK9/CycT1” for “CDK2/CycE”, “1 μg/mL.” for “130 ng/mL.”
as §2, with “HTRF” for “TR-FRET”

[3] = system: A2780 cells; assay: Proliferation assay, Cell Titre-Glo viability (Method 3); format: cell-based, human; conditions: Homo sapiens, A2780, 72 h, A2780, 72-hour exposure; read-out: Inhibition of A2780 cell proliferation IC50
Method: A2780 human ovarian carcinoma cells (ECACC #93112519) and non-adherent MOLM-13 human acute myeloid leukemia cells (DSMZ ACC 554) were seeded at a density of 3,000 cell/well (A2780) or 5,000 cells/well (MOLM-13) in a 96-well multititer plate in 150 μL of growth medium supplemented 10% fetal calf serum. After 24 hours, cell viability of one plate (zero-point plate) was determined with the Cell Titre-Glo Luminescent Cell Viability Assay (Promega), while the medium of the other plates was supplemented with the test substances in various concentrations (0 μM, as well as in the range of 0.0001-10 μM; the final concentration of the solvent dimethyl sulfoxide was adjusted to 0.1%) using a Hewlett-Packard HP D300 Digital Dispenser. Cell viability was assessed after 72-hour exposure with the Cell
Titre-Glo Luminescent Cell Viability Assay (Promega). IC50 values (inhibitory concentration at 50% of maximal effect) were determined by means of a 4 parameter fit on measurement data which were normalized to vehicle (DMSO) treated cells (=100%) and measurement readings taken immediately before compound exposure (=0%).

| SMILES | IC50 [1] [nM] | IC50 [2] [nM] | Selectivity CDK9 over CDK2: IC50 (CDK2)/IC50 (CDK9) [2] | IC50 [3] [nM] |
| --- | --- | --- | --- | --- |
| CS(=O)(Cc1cc2nc(c1)Nc1cc(c(F)cn1)-c1ccc(F)cc1OCCCCN2)=NC(=O)OCc1ccccc1 (racemic) [Example 2, (rac)-Benzyl[{[16,20-difluoro-3,4,5,6-tetrahydro-2H,12H-11,7-(azeno)-13,17-(metheno)-1,6,12,14-benzoxatriazacyclononadecin-9-yl]methyl}(methyl)oxido-λ^6-sulfanylidene]carbamate] | 698 | 14.7 | 47.5 | 38 |
| CS(=N)(=O)Cc1cc2nc(c1)Nc1cc(c(F)cn1)-c1ccc(F)cc1OCCCCN2 (racemic) [Example 3, (rac)-16,20-Difluoro-9-[(S-methylsulfonimidoyl)methyl]-3,4,5,6-tetrahydro-2H,12H-11,7-(azeno)-13,17-(metheno)-1,6,12,14-benzoxatriazacyclononadecine] | 44 | 8.3 | 5.3 | 5.5 |
| CC(C)(C)OC(=O)N=S(C)(=O)Cc1cc2nc(c1)Nc1cc(c(F)cn1)-c1ccc(F)cc1OCCCN2 (racemic) [Example 7, (rac)-tert-butyl[{[15,19-difluoro-2,3,4,5-tetrahydro-11H-10,6-(azeno)-16,12-(metheno)-1,5,11,13-benzoxatriazacyclooctadecin-8-yl]methyl}(methyl)oxido-λ^6-sulfanylidene]carbamate] | 27 | 7.5 | 3.6 | 7 |
| CC(C)(C)OC(=O)N=S(C)(=O)Cc1cc2nc(c1)Nc1cc(c(F)cn1)-c1ccc(F)cc1OCCCCCN2 (racemic) [Example 9, (rac)-tert-butyl[{[17,21-difluoro-2,3,4,5,6,7-hexahydro-13H-12,8-(azeno)-14,18-(metheno)-1,7,13,15-benzoxatriazacycloicosin-10-yl]methyl}(methyl)oxido-λ^6-sulfanylidene]carbamate] | 96 | 13 | 7.4 | 27 |
| CC(C)(C)OC(=O)N=S(C)(=O)Cc1cc2cc(c1)OCCCCSc1cc(F)ccc1-c1nc(ncc1F)N2 (racemic) [Example 21, (rac)-tert-butyl[{[16,20-difluoro-2,3,4,5-tetrahydro-12H-17,13-(azeno)-11,7-(metheno)-6,1,12,14-benzoxathiadiazacyclononadecin-9-yl]methyl}(methyl)oxido-λ^6-sulfanylidene]carbamate] |  |  |  | > 100 |
| CS(=N)(=O)Cc1cc2cc(c1)OCCCCSc1cc(F)ccc1-c1nc(ncc1F)N2 (racemic) [Example 22, (rac)-16,20-difluoro-9-[(S-methylsulfonimidoyl)methyl]-2,3,4,5-tetrahydro-12H-17,13-(azeno)-11,7-(metheno)-6,1,12,14-benzoxathiadiazacyclononadecine] |  |  |  | 45 |
| CC(C)(C)OC(=O)N=S(C)(=O)Cc1cc2cc(c1)Nc1ncc(F)c(n1)-c1ccc(F)cc1OCCCCN2 (racemic) [Example 24, (rac)-tert-butyl[{[16,20-difluoro-3,4,5,6-tetrahydro-2H,12H-13,17-(azeno)-11,7-(metheno)-1,6,12,14-benzoxatriazacyclononadecin-9-yl]methyl}(methyl)oxido-λ^6-sulfanylidene]carbamate] | 2570 | 91 | 28.2 |  |
| CSCc1cc2nc(c1)OCCCCc1cc(F)ccc1-c1cc(ncc1F)N2 [Example 4, 2,18-Difluoro-9-[(methylsulfanyl)methyl]-13,14,15,16-tetrahydro-6H-7,11-(azeno)-5,1-(metheno)-12,4,6-benzoxadiazacyclooctadecine] | > 20000 | 36 | >556 |  |

Continued by falling IC50 [2], values first:

| IC50 [1] [nM] | IC50 [2] [nM] | Selectivity CDK9 over CDK2: IC50 (CDK2)/IC50 (CDK9) [2] | IC50 [3] [nM] | SMILES |
| --- | --- | --- | --- | --- |
|  | 6.5 |  | 19 | CC(C)(C)OC(=O)N=S(C)(=O)Cc1cc2cc(c1)OCCCNc1cc(F)ccc1-c1nc(ncc1F)N2 (racemic) [Example 13, (rac)-tert-butyl[{[15,19-difluoro-1,2,3,4-tetrahydro-16,12-(azeno)-6,10-(metheno)-5,1,11,13-benzoxatriazacyclooctadecin-8(11H)-yl]methyl}(methyl)oxido-λ^6-sulfanylidene]carbamate] |
| 275 | 6.2 | 44.4 | 270 | C[S+]([O-])Cc1cc2nc(c1)OCCCCc1cc(F)ccc1-c1cc(ncc1F)N2 (racemic) [Example 5, (rac)-2,18-Difluoro-9-[(methylsulfinyl)methyl]-13,14,15,16-tetrahydro-6H-7,11-(azeno)-5,1-(metheno)-12,4,6-benzoxadiazacyclooctadecine] |
|  | 3.2 |  | 4.7 | CS(=N)(=O)Cc1cc2cc(c1)OCCCNc1cc(F)ccc1-c1nc(ncc1F)N2 (racemic) [Example 14, rac-15,19-difluoro-8-[(S-methylsulfonimidoyl)methyl]-1,2,3,4-tetrahydro-16,12-(azeno)-6,10-(metheno)-5,1,11,13-benzoxatriazacyclooctadecine] |
| 9.1 | 2.7 | 3.4 | 1.4 | CS(=N)(=O)Cc1cc2nc(c1)Nc1cc(c(F)cn1)-c1ccc(F)cc1OCCCN2 (racemic) [Example 8, (rac)-15,19-difluoro-8-[(S-methylsulfonimidoyl)methyl]-2,3,4,5-tetrahydro-11H-10,6-(azeno)-16,12-(metheno)-1,5,11,13-benzoxatriazacyclooctadecine] |
